Columns and labels:
Type in all cases: biochemical
[1] = biological target: cathepsin B (Homo sapiens, UniProt P07858); assay: Inhibitory activity assay against cathepsin B (enzyme assay); conditions: Z-Arg-Arg-AMC 40 μM, enzyme 1 nM, pH 6.0, 90 minutes
How it was run: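 Reaction run 90 min in MES buffer pH 6.0 containing DTT, EDTA, Polysorbate 20 and 10% DMSO, using 40 μM fluorogenic Z-Arg-Arg-AMC and 1 nM cathepsin B. Ten compound levels from 10.0 μM; AMC fluorescence at ex 340/em 460 nm fitted to a 4-parameter logistic for IC50.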

[2] = biological target: T1, cathepsin K (Homo sapiens, UniProt P43235); assay: Inhibitory activity assay against cathepsin K (enzyme assay); conditions: Z-Phe-Arg-AMC 10 μM, enzyme 1 nM, pH 5.5, 30 minutes
T1 sequence (P43235 115-329): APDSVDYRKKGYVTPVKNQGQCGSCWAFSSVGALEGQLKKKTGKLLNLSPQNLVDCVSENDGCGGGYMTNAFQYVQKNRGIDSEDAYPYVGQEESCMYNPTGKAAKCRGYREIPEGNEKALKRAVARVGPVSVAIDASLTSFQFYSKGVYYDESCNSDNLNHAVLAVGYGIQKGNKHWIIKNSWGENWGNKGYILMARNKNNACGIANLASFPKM
How it was run: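 IC50 by 4-parameter logistic fit of fluorescence (ex 355 nm, em 460 nm) after 30 min reaction. Compound tested at 10 final concentrations from 10.0 μM down to 0.000508 μM against 1 nM enzyme and 10 μM Z-Phe-Arg-AMC, in MES buffer pH 5.5 with DTT, EDTA, Triton X-100 and 10% DMSO.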

[3] = biological target: cathepsin L (Homo sapiens, UniProt P07711); assay: Inhibitory activity assay against cathepsin L (enzyme assay); conditions: Z-Phe-Arg-AMC 2 μM, enzyme 3 nM, pH 5.5, 30 minutes
How it was run: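 IC50s came from 4-parameter logistic fits of ten concentrations (10.0 μM down to 0.000508 μM). Reaction: 30 min, 3 nM enzyme, 2 μM Z-Phe-Arg-AMC, pH 5.5 MES buffer containing DTT, EDTA, Polysorbate 20 and 10% DMSO; fluorescence read 340/460 nm.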

[4] = biological target: cathepsin S (Homo sapiens, UniProt P25774); assay: Inhibitory activity assay against cathepsin S (enzyme assay); conditions: Z-Phe-Arg-AMC 70 μM, enzyme 3 nM, pH 6.5, 45 minutes
How it was run: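 Ten-point compound titration (10.0 to 0.000508 μM final) reacted 45 min with 3 nM cathepsin S and 70 μM Z-Phe-Arg-AMC in MES 50 mM pH 6.5, DTT 2.5 mM, EDTA 1.0 mM, BSA 0.001%, DMSO 10%. AMC release read at 340/460 nm; IC50 from four-parameter logistic fit.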

cathepsin S, sequence (P25774 115-331, species assumed): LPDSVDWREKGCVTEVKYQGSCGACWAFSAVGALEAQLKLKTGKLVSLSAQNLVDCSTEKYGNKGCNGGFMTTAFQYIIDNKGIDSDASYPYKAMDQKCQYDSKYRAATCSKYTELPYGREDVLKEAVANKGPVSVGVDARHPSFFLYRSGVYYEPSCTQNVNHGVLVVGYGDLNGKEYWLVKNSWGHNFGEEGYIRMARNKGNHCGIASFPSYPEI
cathepsin L, sequence (P07711 114-333, species assumed): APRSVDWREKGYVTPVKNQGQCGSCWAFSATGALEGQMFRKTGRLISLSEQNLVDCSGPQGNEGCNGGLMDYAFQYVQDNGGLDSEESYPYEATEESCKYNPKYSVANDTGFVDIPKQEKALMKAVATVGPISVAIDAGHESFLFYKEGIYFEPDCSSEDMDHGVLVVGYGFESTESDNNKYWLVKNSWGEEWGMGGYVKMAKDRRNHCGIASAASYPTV

| IC50 [1] [nM] | IC50 [2] [nM] | IC50 [3] [nM] | IC50 [4] [nM] | SMILES |
| --- | --- | --- | --- | --- |
| 4760 | 0.1 | > 10000 | > 10000 | CNCCOc1ccc(-c2ccc(NC(=O)NC3(c4ccnc(C#N)n4)CCCCC3)cc2)cc1 [Example 191, 1-(1-(2-cyanopyrimidin-4-yl)cyclohexyl)-3-(4′-(2-(methylamino)ethoxy)-[1,1′-biphenyl]-4-yl)urea] |
| > 10000 | 60.8 | 1740 | 8320 | N#Cc1nccc(C2(NC(=O)OCc3ccccc3F)CCCCC2)n1 [Example 18, 2-fluorobenzyl (1-(2-cyanopyrimidin-4-yl)cyclohexyl)carbamate] |
| > 10000 | 13.8 | > 10000 | > 10000 | N#Cc1nccc(C2(NC(=O)Nc3ccc(-c4ccc(S(N)(=O)=O)cc4)cc3)CCCCC2)n1 [Example 173, 4′-(3-(1-(2-cyanopyrimidin-4-yl)cyclohexyl)ureido)-[1,1′-biphenyl]-4-sulfonamide] |
| > 10000 | 277 | 4610 | > 10000 | N#Cc1nccc(C2(NC(=O)OCc3cccc(Cl)c3)CCCCC2)n1 [Example 16, 3-chlorobenzyl (1-(2-cyanopyrimidin-4-yl)cyclohexyl)carbamate] |
| 5660 | 19.5 | > 10000 | > 10000 | N#Cc1nccc(C2(NC(=O)NCc3cccc4ccccc34)CCCC2)n1 [Example 55, 1-(1-(2-cyanopyrimidin-4-yl)cyclopentyl)-3-(naphthalen-1-ylmethyl)urea] |
| 1840 | 0.1 | 8810 | > 10000 | CCN1CCN(c2ccc(-c3ccc(NC(=O)NC4(c5ccnc(C#N)n5)CCCCC4)cc3)cc2)CC1 [Example 160, 1-(1-(2-cyanopyrimidin-4-yl)cyclohexyl)-3-(4′-(4-ethylpiperazin-1-yl)-[1,1′-biphenyl]-4-yl)urea] |
| > 10000 | 18.5 | > 10000 | > 10000 | N#Cc1nccc(C2(NC(=O)Nc3ccc(Oc4ccccc4)cc3)CCCC2)n1 [Example 44, 1-(1-(2-cyanopyrimidin-4-yl)cyclopentyl)-3-(4-phenoxyphenyl)urea] |
| 1760 | 0.1 | 4400 | > 10000 | N#Cc1nccc(C2(NC(=O)Nc3ccc(-c4ccc(C(=O)NCCn5ccnc5)cc4)cc3)CCCCC2)n1 [Example 185, N-(2-(1H-imidazol-1-yl)ethyl)-4′-(3-(1-(2-cyanopyrimidin-4-yl)cyclohexyl)ureido)-[1,1′-biphenyl]-4-carboxamide] |
| > 10000 | 12.2 | 7030 | > 10000 | N#Cc1nccc(C2(NC(=O)Nc3ccc(N4CCOCC4)cc3)CCCCC2)n1 [Example 139, 1-(1-(2-cyanopyrimidin-4-yl)cyclohexyl)-3-(4-morpholinophenyl)urea] |
| > 10000 | 10.2 | > 10000 | > 10000 | N#Cc1nccc(C2(NC(=O)Nc3ccc(-c4cccc(F)c4)cc3)CCCCC2)n1 [Example 123, 1-(1-(2-cyanopyrimidin-4-yl)cyclohexyl)-3-(3′-fluoro-[1,1′-biphenyl]-4-yl)urea] |
| > 10000 | 6.2 | > 10000 | 4640 | CC(=O)Nc1ccc(-c2ccc(NC(=O)NC3(c4ccnc(C#N)n4)CCCCC3)cc2F)cc1 [Example 164, N-(4′-(3-(1-(2-cyanopyrimidin-4-yl)cyclohexyl)ureido)-2′-fluoro-[1,1′-biphenyl]-4-yl)acetamide] |
| > 10000 | 39.9 | 8180 | > 10000 | N#Cc1nccc(C2(NC(=O)Nc3ccccc3)CCCC2)n1 [Example 41, 1-(1-(2-cyanopyrimidin-4-yl)cyclopentyl)-3-phenylurea] |
| > 10000 | 1570 | > 10000 | > 10000 | CS(=O)(=O)c1ccc(-c2ccc(COC(=O)NC3(c4ccnc(C#N)n4)CCCC3)cc2)cc1 [Example 29, (4′-(methylsulfonyl)-[1,1′-biphenyl]-4-yl)methyl (1-(2-cyanopyrimidin-4-yl)cyclopentyl)carbamate] |
| > 10000 | 25.1 | > 10000 | 5750 | N#Cc1nccc(C2(NC(=O)Nc3ccc(-c4ccc(C(F)(F)F)nc4)cc3)CCCCC2)n1 [Example 126, 1-(1-(2-cyanopyrimidin-4-yl)cyclohexyl)-3-(4-(6-(trifluoromethyl)pyridin-3-yl)phenyl)urea] |
| > 10000 | 37.2 | > 10000 | > 10000 | Cc1ccc(COC(=O)NC2(c3ccnc(C#N)n3)CCCCC2)cc1 [Example 22, 4-methylbenzyl (1-(2-cyanopyrimidin-4-yl)cyclohexyl)carbamate] |
| 2740 | 0.1 | 2020 | > 10000 | N#Cc1nccc(C2(NC(=O)Nc3ccc(-c4ccc(C(=O)NCCn5ccnc5)cc4)c(F)c3)CCCCC2)n1 [Example 186, N-(2-(1H-imidazol-1-yl)ethyl)-4′-(3-(1-(2-cyanopyrimidin-4-yl)cyclohexyl)ureido)-2′-fluoro-[1,1′-biphenyl]-4-carboxamide] |
| > 10000 | 3.2 | 1100 | > 10000 | Cc1ccc(C(F)(F)F)cc1NC(=O)NC1(c2ccnc(C#N)n2)CCCCC1 [Example 99, 1-(1-(2-cyanopyrimidin-4-yl)cyclohexyl)-3-(2-methyl-5-(trifluoromethyl)phenyl)urea] |
| > 10000 | 22.4 | 895 | 7780 | N#Cc1nccc(C2(NC(=O)OCc3ccc(F)cc3)CCCCC2)n1 [Example 27, 4-fluorobenzyl (1-(2-cyanopyrimidin-4-yl)cyclohexyl)carbamate] |
| > 10000 | 4.3 | > 10000 | > 10000 | COC(=O)Cc1ccc(-c2ccc(NC(=O)NC3(c4ccnc(C#N)n4)CCCCC3)cc2)cc1 [Example 156, methyl 2-(4′-(3-(1-(2-cyanopyrimidin-4-yl)cyclohexyl)ureido)-[1,1′-biphenyl]-4-yl)acetate] |
| > 10000 | 23.9 | > 10000 | > 10000 | N#Cc1nccc(C2(NC(=O)Nc3ccc(Cl)c(C(F)(F)F)c3)CCCCC2)n1 [Example 93, 1-(4-chloro-3-(trifluoromethyl)phenyl)-3-(1-(2-cyanopyrimidin-4-yl)cyclohexyl)urea] |
| > 10000 | 10.9 | > 10000 | > 10000 | COc1ccc(-c2ccc(NC(=O)NC3(c4ccnc(C#N)n4)CCCCC3)cc2)cn1 [Example 127, 1-(1-(2-cyanopyrimidin-4-yl)cyclohexyl)-3-(4-(6-methoxypyridin-3-yl)phenyl)urea] |
| > 10000 | 32.2 | 4770 | > 10000 | N#Cc1nccc(C2(NC(=O)NCc3ccccc3C(F)(F)F)CCCCC2)n1 [Example 91, 1-(1-(2-cyanopyrimidin-4-yl)cyclohexyl)-3-(2-(trifluoromethyl)benzyl)urea] |
| > 10000 | 71.5 | > 10000 | > 10000 | N#Cc1nccc(C2(NC(=O)Nc3cccc(-c4ccccc4)c3)CCCCC2)n1 [Example 111, 1-([1,1′-biphenyl]-3-yl)-3-(1-(2-cyanopyrimidin-4-yl)cyclohexyl)urea] |
